Experimental data from ChEMBL document CHEMBL3885881, “DrugMatrix”.

Organism: Rattus norvegicus
Assay: DrugMatrix - Regimen: Daily Repeat
Assay type: toxicity, organism-based, Sprague-Dawley
Design: regimen Daily Repeat, gender Male, age 6-8 weeks
Conditions: in vivo, po, route oral GAVAGE, […]; for ABSOLUTE BASOPHIL / ABSOLUTE EOSINOPHIL / ABSOLUTE LYMPHOCYTE / ABSOLUTE MONOCYTE / ABSOLUTE SEGMENTED NEUTROPHIL / BASOPHIL / EOSINOPHIL / ERYTHROCYTE COUNT / HEMATOCRIT / HEMOGLOBIN / LEUKOCYTE COUNT / LYMPHOCYTE / MEAN CORPUSCULAR HEMOGLOBIN / MEAN CORPUSCULAR HEMOGLOBIN CONCENTRATION / MEAN CORPUSCULAR VOLUME / MONOCYTE / NEUTROPHIL / NUCLEATED RED BLOOD CELLS / PLATELET COUNT: tissue Blood; for ALANINE AMINOTRANSFERASE / ALKALINE PHOSPHATASE / ASPARTATE AMINOTRANSFERASE / BLOOD UREA NITROGEN / CARBON DIOXIDE / CHLORIDE / CHOLESTEROL / CREATINE PHOSPHOKINASE / CREATININE / GLUCOSE / LACTATE DEHYDROGENASE / LIPASE / PHOSPHORUS / POTASSIUM / SODIUM / TOTAL BILIRUBIN / TOTAL PROTEIN / URIC ACID: tissue Plasma
[1] = 0 mg/kg, 72 h, dose level Control, time 3 day
[2] = 0 mg/kg, dose level Control, time 7 day
[3] = 100 mg/kg, 72 h, dose level Low, time 3 day

SMILES: Cc1ccc(C)c(OCCCC(C)(C)C(=O)O)c1 [GEMFIBROZIL]
- ABSOLUTE BASOPHIL [1]: 0 CELLS/uL
- ABSOLUTE EOSINOPHIL [1]: 37.33 CELLS/uL
- ABSOLUTE LYMPHOCYTE [1]: 6295.33 CELLS/uL
- ABSOLUTE MONOCYTE [1]: 122.17 CELLS/uL
- ABSOLUTE SEGMENTED NEUTROPHIL [1]: 861.83 CELLS/uL
- BASOPHIL [1]: 0%
- EOSINOPHIL [1]: 0.5%
- ERYTHROCYTE COUNT [1]: 5.2 x10E6/uL
- HEMATOCRIT [1]: 32.58%
- HEMOGLOBIN [1]: 12.95 G/DL
- LEUKOCYTE COUNT [1]: 7.32 x10E3/uL
- LYMPHOCYTE [1]: 86%
- MEAN CORPUSCULAR HEMOGLOBIN [1]: 24.93 pg
- MEAN CORPUSCULAR HEMOGLOBIN CONCENTRATION [1]: 39.77 G/DL
- MEAN CORPUSCULAR VOLUME [1]: 62.65 fL
- MONOCYTE [1]: 1.67%
- NEUTROPHIL [1]: 11.83%
- NUCLEATED RED BLOOD CELLS [1]: 0 /100WBC
- PLATELET COUNT [1]: 1029 x10E3/uL
- ALANINE AMINOTRANSFERASE [1]: 63.67 u/L
- ALKALINE PHOSPHATASE [1]: 329.83 u/L
- ASPARTATE AMINOTRANSFERASE [1]: 77.67 u/L
- BLOOD UREA NITROGEN [1]: 18 mg/dL
- CARBON DIOXIDE [1]: 29.67 mmol/L
- CHLORIDE [1]: 102.67 MEQ/L
- CHOLESTEROL [1]: 64.5 mg/dL
- CREATINE PHOSPHOKINASE [1]: 178.67 u/L
- CREATININE [1]: 0.18 mg/dL
- GLUCOSE [1]: 163.83 mg/dL
- LACTATE DEHYDROGENASE [1]: 75.83 u/L
- LIPASE [1]: 10 u/L
- PHOSPHORUS [1]: 8.28 mg/dL
- POTASSIUM [1]: 4.79 MEQ/L
- SODIUM [1]: 142.22 MEQ/L
- TOTAL BILIRUBIN [1]: 0.22 mg/dL
- TOTAL PROTEIN [1]: 5.78 G/DL
- URIC ACID [1]: 0.87 mg/dL
- ABSOLUTE BASOPHIL [2]: 0 CELLS/uL
- ABSOLUTE EOSINOPHIL [2]: 19 CELLS/uL
- ABSOLUTE LYMPHOCYTE [2]: 7803.5 CELLS/uL
- ABSOLUTE MONOCYTE [2]: 117.83 CELLS/uL
- ABSOLUTE SEGMENTED NEUTROPHIL [2]: 1093 CELLS/uL
- BASOPHIL [2]: 0%
- EOSINOPHIL [2]: 0.17%
- ERYTHROCYTE COUNT [2]: 5.84 x10E6/uL
- HEMATOCRIT [2]: 35.75%
- HEMOGLOBIN [2]: 13.87 G/DL
- LEUKOCYTE COUNT [2]: 9.03 x10E3/uL
- LYMPHOCYTE [2]: 87.17%
- MEAN CORPUSCULAR HEMOGLOBIN [2]: 23.78 pg
- MEAN CORPUSCULAR HEMOGLOBIN CONCENTRATION [2]: 38.8 G/DL
- MEAN CORPUSCULAR VOLUME [2]: 61.25 fL
- MONOCYTE [2]: 1.17%
- NEUTROPHIL [2]: 11.5%
- NUCLEATED RED BLOOD CELLS [2]: 0 /100WBC
- PLATELET COUNT [2]: 1098.67 x10E3/uL
- ALANINE AMINOTRANSFERASE [2]: 66 u/L
- ALKALINE PHOSPHATASE [2]: 291.83 u/L
- ASPARTATE AMINOTRANSFERASE [2]: 80.5 u/L
- BLOOD UREA NITROGEN [2]: 15.67 mg/dL
- CARBON DIOXIDE [2]: 30 mmol/L
- CHLORIDE [2]: 101.67 MEQ/L
- CHOLESTEROL [2]: 69.67 mg/dL
- CREATINE PHOSPHOKINASE [2]: 363.33 u/L
- CREATININE [2]: 0.25 mg/dL
- GLUCOSE [2]: 146.5 mg/dL
- LACTATE DEHYDROGENASE [2]: 219.67 u/L
- LIPASE [2]: 11.33 u/L
- PHOSPHORUS [2]: 10.08 mg/dL
- POTASSIUM [2]: 5.22 MEQ/L
- SODIUM [2]: 144.67 MEQ/L
- TOTAL BILIRUBIN [2]: 0.12 mg/dL
- TOTAL PROTEIN [2]: 6.33 G/DL
- URIC ACID [2]: 0.75 mg/dL
- ABSOLUTE BASOPHIL [3]: 0 CELLS/uL
- ABSOLUTE EOSINOPHIL [3]: 135 CELLS/uL
- ABSOLUTE LYMPHOCYTE [3]: 14816.33 CELLS/uL
- ABSOLUTE MONOCYTE [3]: 381.17 CELLS/uL
- ABSOLUTE SEGMENTED NEUTROPHIL [3]: 1317.5 CELLS/uL
- BASOPHIL [3]: 0%
- EOSINOPHIL [3]: 0.67%
- ERYTHROCYTE COUNT [3]: 5.65 x10E6/uL
- HEMATOCRIT [3]: 35.43%
- HEMOGLOBIN [3]: 14.12 G/DL
- LEUKOCYTE COUNT [3]: 16.65 x10E3/uL
- LYMPHOCYTE [3]: 89%
- MEAN CORPUSCULAR HEMOGLOBIN [3]: 25.02 pg
- MEAN CORPUSCULAR HEMOGLOBIN CONCENTRATION [3]: 39.85 G/DL
- MEAN CORPUSCULAR VOLUME [3]: 62.8 fL
- MONOCYTE [3]: 2.33%
- NEUTROPHIL [3]: 8%
- NUCLEATED RED BLOOD CELLS [3]: 0 /100WBC
- PLATELET COUNT [3]: 1185.67 x10E3/uL
- ALANINE AMINOTRANSFERASE [3]: 52.83 u/L
- ALKALINE PHOSPHATASE [3]: 423.5 u/L
- ASPARTATE AMINOTRANSFERASE [3]: 76.17 u/L
- BLOOD UREA NITROGEN [3]: 14.67 mg/dL
- CARBON DIOXIDE [3]: 31 mmol/L
- CHLORIDE [3]: 101.5 MEQ/L
- CHOLESTEROL [3]: 48 mg/dL
- CREATINE PHOSPHOKINASE [3]: 304.5 u/L
- CREATININE [3]: 0.2 mg/dL
- GLUCOSE [3]: 145.83 mg/dL
- LACTATE DEHYDROGENASE [3]: 103.67 u/L
- LIPASE [3]: 11.17 u/L
- PHOSPHORUS [3]: 11.08 mg/dL
- POTASSIUM [3]: 6.55 MEQ/L
- SODIUM [3]: 142.47 MEQ/L
- TOTAL BILIRUBIN [3]: 0.2 mg/dL
- TOTAL PROTEIN [3]: 5.9 G/DL
- URIC ACID [3]: 1.3 mg/dL
